Values of other authors as cited in patent publication US20250186347A1 (priority 2025, published 2025).

Tested on: E. faecalis ampicillin-resistant strains
Conditions: reports

Which MIC does the source give for `CC1(C)S[C@@H]2[C@H](NC(=O)[C@H](N)c3ccccc3)C(=O)N2[C@H]1C(=O)O` [ampicillin] here?
The MIC was 4 to 8 µg/mL.
